Reference: paper PMC3366684, “Studies on the Synthesis of Derivatives of Marine-Derived Bostrycin and Their Structure-Activity Relationship against Tumor Cells” (Marine Drugs, 2012)

Key:
[1] = tested on: MCF-7 cells; test: MTT cytotoxicity assay, MCF-7; assay type: cell-based, human; conditions: for IC50: MCF7, human breast cancer cell line, MTT, 48 h exposure, mean ± SD, three independent experiments
Method: (§1) All compounds were evaluated for their in vitro cytotoxic activity against five human cancer cell lines including human breast MCF-7, human breast MDA-MB-435, human lung A549, human liver HepG2 and human colon HCT-116, and compared with their effects on the immortalized human breast epithelial cell line MCF-10A by MTT assay using epirubicin (an anticancer drug used widely in the clinic) as positive control.
(§2) MCF-7, MDA-MB-435, A549, HepG2 and HCT-116 cells were cultured in Dulbecco’s modification Eagle’s medium (DMEM, Invitrogen, Carlsbad, CA, USA) supplemented with 10% fetal bovine serum (FBS, Hyclone, Logan, UT, USA), 2 mM L-glutamine, 100 μg/mL streptomycin and 100 U/mL penicillin (Invitrogen). MCF-10A cells were cultured in keratinocyte serum free medium (KSFM) supplemented with 0.1–0.2 ng/mL human recombinant epidermal growth factor and 20–30 μg/mL bovine pituitary extract (Invitrogen). The cells were incubated at 37 °C in a humidified atmosphere with 5% CO2.
(§3) Cells were harvested during logarithmic growth phase and seeded in 96-well plates at a density of 1 × 10^4 cells/mL, and cultured at 37 °C in a humidified incubator (5% CO2) for 24 h, followed by exposure to various concentrations of compounds tested for 48 h. Subsequently 20 μL of MTT (Genview, Houston, TX, USA) solution (5 mg/mL) was added to each well and mixed, the cells were then incubated for an additional 4 h. Culture supernatant was moved, 150 μL of DMSO (Sangon Biotech, Shanghai, China) was added to each well to fully dissolve the MTT-formazan crystals. Cell growth inhibition was determined by measuring the absorbance (Abs) at λ = 570 nm using a microplate reader and calculated according to the following equation:
(§4) Growth inhibition = (1 − OD of treated cells/OD of control cells) × 100%
(§5) The half maximal inhibitory concentrations (IC50) were obtained from liner regression analysis of the concentration-response curves plotted for each tested compound.

[2] = tested on: A549 cells; test: MTT cytotoxicity assay, A549; assay type: cell-based, human; conditions: for IC50: A549, human lung cancer cell line, MTT, 48 h exposure, mean ± SD, three independent experiments
Method: as §1, §2, §3, §4, §5

[3] = tested on: HepG2 cells; test: MTT cytotoxicity assay, HepG2; assay type: cell-based, human; conditions: for IC50: human liver cancer cell line, MTT, 48 h exposure, mean ± SD, three independent experiments
Method: as §1, §2, §3, §4, §5

[4] = tested on: HCT-116 cells; test: MTT cytotoxicity assay, HCT-116; assay type: cell-based, human; conditions: for IC50: HCT-116, human colon cancer cell line, MTT, 48 h exposure, mean ± SD, three independent experiments
Method: as §1, §2, §3, §4, §5

[5] = tested on: MDA-MB-435 cells; test: MTT cytotoxicity assay, MDA-MB-435; assay type: cell-based, human; conditions: for IC50: MDA-MB-435, human breast cancer cell line, MTT, 48 h exposure, mean ± SD, three independent experiments
Method: as §1, §2, §3, §4, §5

[6] = MTT cytotoxicity assay, MCF-10A; assay type: cell-based; conditions: MCF-10A cells, immortalized human breast epithelial cell line, 48 h exposure, mean ± SD, three independent experiments
Method: as §1, §2, §3, §4, §5

[7] = ratio of IC50 values, bostrycin vs compound

COc1ccc(NC2=CC(=O)c3c(O)c4c(c(O)c3C2=O)C[C@](C)(O)[C@H](O)[C@H]4O)cc1 [Compound 16, 6-(p-Methoxyphenylamino)-6-demethoxybostrycin]
IC50 [1]: 39.4 ± 0.68 µM | IC50 [2]: 41.4 ± 2.86 µM | melting point: 202 to 203 °C | IC50 ([3]; Homo sapiens, HepG2, 48 h): 30.3 ± 1.63 µM | IC50 [4]: 43.3 ± 1.56 µM | IC50 [5]: 36.4 ± 2.08 µM

COC1=CC(=O)c2c(O)c3c(c(O)c2C1=O)C[C@]1(C)OC(C)(C)O[C@@H]1[C@H]3O [Compound 5, 2,3-O-(isopropylidene) Bostrycin]
IC50 [1]: 6.87 ± 0.33 µM | IC50 [2]: 4.25 ± 0.16 µM | melting point: 228 to 229 °C | IC50 ([3]; Homo sapiens, HepG2, 48 h): 37 ± 1.97 µM | IC50 [4]: 11 ± 1.35 µM | IC50 [5]: 5.96 ± 0.21 µM | IC50 at 48 h [6]: 18.1 ± 1.3 µM

C[C@]1(O)Cc2c(O)c3c(c(O)c2[C@H](O)[C@H]1O)C(=O)C=C(N1CCC(c2ccccc2)CC1)C3=O [Compound 22, 6-(4′-Phenylpiperidin-1-yl)-6-demethoxybostrycin]
IC50 [1]: 4.81 ± 0.4 µM | IC50 [2]: 0.76 ± 0.03 µM | melting point: 221 to 222 °C | IC50 ([3]; Homo sapiens, HepG2, 48 h): 6.61 ± 1.12 µM | IC50 [4]: 0.75 ± 0.05 µM | IC50 [5]: 0.95 ± 0.13 µM

C[C@]1(O)Cc2c(O)c3c(c(O)c2[C@H](O)[C@H]1O)C(=O)C1=C(SCCS1)C3=O [Compound 28, 6,7-(Ethan-1′,2′-yl-dithio)-6-demethoxybostrycin]
IC50 [1]: 0.57 ± 0.04 µM | fold more active than bostrycin, MCF-7 [1, 7]: 3.8 fold | IC50 [2]: 0.37 ± 0.04 µM | fold more active than bostrycin, A549 [2, 7]: 7.1 fold | melting point: > 300 °C | IC50 [3]: 0.82 ± 0.01 µM | fold more active than bostrycin, HepG2 [3, 7]: 9.4 fold | IC50 [4]: 0.68 ± 0.08 µM | fold more active than bostrycin, HCT-116 [4, 7]: 7.0 fold | IC50 [5]: 0.63 ± 0.45 µM | fold more active than bostrycin, MDA-MB-435 [5, 7]: 4.5 fold | IC50 at 48 h [6]: 0.81 ± 0.11 µM

CCCCSC1=C(SCCCC)C(=O)c2c(O)c3c(c(O)c2C1=O)C[C@](C)(O)[C@H](O)[C@H]3O [Compound 24, 6,7-bis(n-Butylthio)-6-demethoxybostrycin]
IC50 [1]: 2.45 ± 0.48 µM | IC50 [2]: 4.06 ± 0.42 µM | melting point: 124 to 125 °C | IC50 ([3]; Homo sapiens, HepG2, 48 h): 4.03 ± 0.13 µM | IC50 [4]: 3.25 ± 0.54 µM | IC50 [5]: 7.05 ± 0.56 µM | IC50 at 48 h [6]: 30.6 ± 2.54 µM

COC1=CC(=O)c2c(O)c3c(c(O)c2C1=O)C[C@]1(C)OCO[C@@H]1[C@H]3OCO [Compound 7, 1-O-(hydroxymethyl)-2,3-O-(methylene) Bostrycin]
IC50 [1]: 2.52 ± 0.26 µM | IC50 [2]: 0.78 ± 0.04 µM | melting point: 233 to 234 °C | IC50 ([3]; Homo sapiens, HepG2, 48 h): 4.58 ± 0.5 µM | IC50 [4]: 3.06 ± 0.1 µM | IC50 [5]: 4.25 ± 0.57 µM | IC50 at 48 h [6]: 4.79 ± 0.52 µM

C[C@]1(O)Cc2c(O)c3c(c(O)c2[C@H](O)[C@H]1O)C(=O)C=C(N1CCCCC1)C3=O [Compound 20, 6-(Piperidin-1-yl)-6-demethoxybostrycin]
IC50 [1]: 3.14 ± 0.31 µM | IC50 [2]: 3.16 ± 0.23 µM | melting point: 199 to 200 °C | IC50 ([3]; Homo sapiens, HepG2, 48 h): 1.99 ± 0.17 µM | IC50 [4]: 2.81 ± 0.31 µM | IC50 [5]: 4.04 ± 0.35 µM

COC1=CC(=O)c2c(O)c3c(c(O)c2C1=O)C[C@](C)(O)[C@H](O)[C@H]3O [Compound 1, Bostrycin]
IC50 [1]: 2.18 ± 0.14 µM | IC50 [2]: 2.63 ± 0.33 µM | IC50 ([3]; Homo sapiens, HepG2, 48 h): 7.71 ± 0.72 µM | IC50 [4]: 4.78 ± 0.03 µM | IC50 [5]: 2.82 ± 0.17 µM | IC50 at 48 h [6]: 14.1 ± 0.58 µM

C[C@]1(O)Cc2c(O)c3c(c(O)c2[C@H](O)[C@H]1O)C(=O)C=C(NCc1ccccc1)C3=O [Compound 17, 6-(Benzylamino)-6-demethoxybostrycin]
IC50 [1]: 28.7 ± 2.37 µM | IC50 [2]: 21.3 ± 2.02 µM | melting point: 153 to 154 °C | IC50 ([3]; Homo sapiens, HepG2, 48 h): > 50 µM | IC50 [4]: 20.6 ± 0.37 µM | IC50 [5]: 40.4 ± 1.49 µM | IC50 at 48 h [6]: 19.8 ± 0.63 µM

C[C@]1(O)Cc2c(O)c3c(c(O)c2[C@H](O)[C@H]1O)C(=O)C=C(Nc1ccccc1)C3=O [Compound 15, 6-(Phenylamino)-6-demethoxybostrycin]
IC50 [1]: 3.72 ± 0.27 µM | IC50 [2]: 4.87 ± 0.43 µM | melting point: 226 to 227 °C | IC50 ([3]; Homo sapiens, HepG2, 48 h): > 50 µM | IC50 [4]: 4.84 ± 0.25 µM | IC50 [5]: 10.3 ± 0.45 µM | IC50 at 48 h [6]: 41.6 ± 0.51 µM

CNC1=CC(=O)c2c(O)c3c(c(O)c2C1=O)C[C@](C)(O)[C@H](O)[C@H]3O [Compound 9, 6-(Methylamino)-6-demethoxybostrycin]
IC50 [1]: 3.58 ± 0.65 µM | IC50 [2]: 31.1 ± 1.94 µM | IC50 ([3]; Homo sapiens, HepG2, 48 h): 22.4 ± 1.16 µM | IC50 [4]: 34.2 ± 1.27 µM | IC50 [5]: > 50 µM | IC50 at 48 h [6]: > 50 µM
